Experimental findings from PubChem BioAssay AID236 (DTP/NCI, 2004) are described below.

The subject of this experiment is AK4 lymphoid leukemia ip, C3AKF1 mice, survival. The experiment is described as follows: NCI In Vivo Anticancer Drug Screen. Data for tumor model AK4 Lymphoid Leukemia (intraperitoneal) in C3AKF1 (CHKRF1) mice. The conditions noted are these: endpoint: median survival time, higher = longer survival. As to the method:
The antitumor activity of compounds was measured in mice bearing transplantable tumors. Survival or tumor size were measured and the results are expressed as the measurement made in the treated group (T) divided by the measurement made in the vehicle treated control group (C). The tumor model used in this assay is AK4 Lymphoid Leukemia (intraperitoneal) in C3AKF1 (CHKRF1) mice

Where [1] appears, read: dose: 6.25 mg/kg/injection, schedule: Q01DX010 (ip), vehicle: saline.
Where [2] appears, read: dose: 12.5 mg/kg/injection, schedule: Q01DX010 (ip), vehicle: saline.
The mark [3] stands for this setting: dose: 5.0 mg/kg/injection, schedule: Q01DX010 (ip), vehicle: saline.
Where [4] appears, read: dose: 10.0 mg/kg/injection, schedule: Q01DX010 (ip), vehicle: saline.
[5] abbreviates: dose: 20.0 mg/kg/injection, schedule: Q01DX010 (ip), vehicle: saline.
The mark [6] stands for this setting: dose: 2.0 mg/kg/injection, schedule: Q01DX010 (ip), vehicle: saline.
[7] abbreviates: dose: 4.0 mg/kg/injection, schedule: Q01DX010 (ip), vehicle: saline.
Where [8] appears, read: dose: 8.0 mg/kg/injection, schedule: Q01DX010 (ip), vehicle: saline.
[9] abbreviates: dose: 16.0 mg/kg/injection, schedule: Q01DX010 (ip), vehicle: saline.
Where [10] appears, read: dose: 0.5 mg/kg/injection, schedule: Q01DX010 (ip), vehicle: saline.
[11] abbreviates: dose: 2.5 mg/kg/injection, schedule: Q01DX010 (ip), vehicle: saline.
The mark [12] stands for this setting: dose: 200.0 mg/kg/injection, schedule: Q01DX010 (ip), vehicle: saline.

Values joined by “and” are separate entries in the source; they are usually repeats but may differ in a detail not shown here. Equal values may be shown once. Inconclusive results and toxic doses are left out.

For the molecule `O=P1(N(CCCl)CCCl)NCCCO1` (stereo not given), the T/C runs as follows: (dose: 11.3 mg/kg/injection, schedule: Q01DX010 (ip), vehicle: saline) 175 % of control; (dose: 11.3 mg/kg/injection, schedule: Q01DX Z (ip), vehicle: saline) 180 % of control and 189 % of control; (dose: 22.5 mg/kg/injection, schedule: Q01DX010 (ip), vehicle: saline) 170 % of control and 187 % of control; (dose: 22.5 mg/kg/injection, schedule: Q01DX Z (ip), vehicle: saline) 202 % of control and 210 % of control; (dose: 45.0 mg/kg/injection, schedule: Q01DX010 (ip), vehicle: saline) 220 % of control and 375 % of control; (dose: 45.0 mg/kg/injection, schedule: Q01DX Z (ip), vehicle: saline) 196 % of control and 204 % of control. Besides, the T/C (dose: 90.0 mg/kg/injection, schedule: Q01DX010 (ip), vehicle: saline) was 105 % of control and 225 % of control; the T/C (dose: 90.0 mg/kg/injection, schedule: Q01DX Z (ip), vehicle: saline) is 151 % of control and 168 % of control; the T/C (dose: 180.0 mg/kg/injection, schedule: Q01DX010 (ip), vehicle: saline) is 105 % of control and 118 % of control; the T/C (dose: 180.0 mg/kg/injection, schedule: Q01DX Z (ip), vehicle: saline) was 113 % of control and 120 % of control.

Consider `O=NN(CCCl)C(=O)NCCCl`, for which the T/C reads like this: under setting [1], 168 % of control and 185 % of control; under setting [2], 160 % of control and 181 % of control.

For `CN(C)c1ccc(/C=C\c2ccnc3ccccc23)cc1`, the T/C is, setting by setting: (dose: 1.5 mg/kg/injection, schedule: Q01DX010 (ip), vehicle: saline) 100 % of control; (dose: 3.0 mg/kg/injection, schedule: Q01DX010 (ip), vehicle: saline) 100 % of control; (dose: 6.0 mg/kg/injection, schedule: Q01DX010 (ip), vehicle: saline) 100 % of control; (dose: 12.0 mg/kg/injection, schedule: Q01DX010 (ip), vehicle: saline) 100 % of control.

For `C[C@@H]1C[C@@H]([C@H](O)CC2CC(=O)NC(=O)C2)C(=O)[C@@H](C)C1`, the T/C is, setting by setting: under setting [3], 100 % of control and 107 % of control; under setting [4], 87 % of control and 121 % of control; under setting [5], 93 % of control and 114 % of control.

Regarding `CS(=O)(=O)OCCCl`, the T/C (dose: 18.8 mg/kg/injection, schedule: Q01DX010 (ip), vehicle: saline) is 100 % of control; the T/C (dose: 37.5 mg/kg/injection, schedule: Q01DX010 (ip), vehicle: saline) was 100 % of control; the T/C (dose: 75.0 mg/kg/injection, schedule: Q01DX010 (ip), vehicle: saline) is 100 % of control.

Take `O=C(Nc1ccc(NC2=NCCN2)cc1)c1ccc(C(=O)Nc2ccc(NC3=NCCN3)cc2)cc1`: the T/C reads like this: under setting [6], 95 % of control and 105 % of control; under setting [7], 90 % of control and 110 % of control; under setting [8], 110 % of control; under setting [9], 150 % of control.

Regarding `CC[C@]1(O)C[C@H]2CN(CCc3c([nH]c4ccccc34)[C@@](C(=O)OC)(c3cc4c(cc3OC)N(C=O)[C@H]3[C@@](O)(C(=O)OC)[C@H](OC(C)=O)[C@]5(CC)C=CCN6CC[C@]43[C@@H]65)C2)C1`, the T/C was 100 % of control and 115 % of control (dose: 0.03 mg/kg/injection, schedule: Q01DX010 (ip), vehicle: saline); 96 % of control and 106 % of control (dose: 0.03 mg/kg/injection, schedule: Q01DX Z (ip), vehicle: saline); 90 % of control and 112 % of control (dose: 0.06 mg/kg/injection, schedule: Q01DX010 (ip), vehicle: saline); 96 % of control and 106 % of control (dose: 0.06 mg/kg/injection, schedule: Q01DX Z (ip), vehicle: saline); 102 % of control and 106 % of control (dose: 0.12 mg/kg/injection, schedule: Q01DX Z (ip), vehicle: saline); 115 % of control (dose: 0.25 mg/kg/injection, schedule: Q01DX010 (ip), vehicle: saline). The T/C reads like this: (dose: 0.25 mg/kg/injection, schedule: Q01DX Z (ip), vehicle: saline) 102 % of control and 120 % of control; under setting [10], 93 % of control; (dose: 62.5 micrograms/kg/injection, schedule: Q01DX010 (ip), vehicle: saline) 112 % of control.

Take `S=P(N1CCOCC1)(N1CC1)N1CC1`: the T/C was 94 % of control under setting [11], 105 % of control under setting [3], 100 % of control under setting [4] and 94 % of control under setting [5].

With `CS(=O)(=O)OCC(O)C(O)C(O)C(O)COS(C)(=O)=O` (stereo not given), the T/C by setting is: under setting [2], 112 % of control; (dose: 25.0 mg/kg/injection, schedule: Q01DX010 (ip), vehicle: saline) 100 % of control and 105 % of control; (dose: 50.0 mg/kg/injection, schedule: Q01DX010 (ip), vehicle: saline) 94 % of control; (dose: 100.0 mg/kg/injection, schedule: Q01DX010 (ip), vehicle: saline) 87 % of control and 100 % of control; under setting [12], 100 % of control.

Consider `NC(=O)N(CCCl)N=O`, for which the T/C reads like this: under setting [10], 162 % of control; (dose: 1.0 mg/kg/injection, schedule: Q01DX010 (ip), vehicle: saline) 168 % of control and 200 % of control; under setting [7], 87 % of control.

Take `Nc1nc2n[nH]nc2c(=O)[nH]1`: the T/C (dose: 25.0 mg/kg/injection, schedule: Q01DX010 (ip), vehicle: alkali diluted with saline) is 100 % of control and 115 % of control; the T/C (dose: 50.0 mg/kg/injection, schedule: Q01DX010 (ip), vehicle: alkali diluted with saline) was 105 % of control and 120 % of control; the T/C (dose: 100.0 mg/kg/injection, schedule: Q01DX010 (ip), vehicle: alkali diluted with saline) was 100 % of control and 110 % of control; the T/C (dose: 200.0 mg/kg/injection, schedule: Q01DX010 (ip), vehicle: alkali diluted with saline) is 100 % of control and 110 % of control.

`O=c1[nH]cc(F)c(=O)[nH]1`: the T/C by setting is: under setting [5], 162 % of control; (dose: 40.0 mg/kg/injection, schedule: Q01DX010 (ip), vehicle: saline) 112 % of control; (dose: 80.0 mg/kg/injection, schedule: Q01DX010 (ip), vehicle: saline) 93 % of control.

As to `CC[n+]1c(-c2ccccc2)c2cc(N)ccc2c2ccc(N)cc21`, the T/C by setting is: (dose: 1.25 mg/kg/injection, schedule: Q01DX010 (ip), vehicle: saline) 100 % of control; under setting [11], 100 % of control; under setting [3], 100 % of control; under setting [4], 100 % of control and 112 % of control; under setting [5], 112 % of control.

Take `CN(C)CC(=O)c1ccc(O)c(O)c1`: the T/C under setting [12] is 112 % of control; the T/C (dose: 300.0 mg/kg/injection, schedule: Q01DX010 (ip), vehicle: saline) is 100 % of control; the T/C (dose: 450.0 mg/kg/injection, schedule: Q01DX010 (ip), vehicle: saline) was 112 % of control; the T/C (dose: 675.0 mg/kg/injection, schedule: Q01DX010 (ip), vehicle: saline) is 118 % of control.

Turning to `O=C(O)CCCc1ccc(N(CCCl)CCCl)cc1`, the T/C reads like this: (dose: 3.13 mg/kg/injection, schedule: Q01DX010 (ip), vehicle: saline) 100 % of control; under setting [1], 113 % of control and 120 % of control; under setting [2], 95 % of control.

Regarding `O=CN(O)CC(=O)O`, the T/C runs as follows: (dose: 62.5 mg/kg/injection, schedule: Q01DX010 (ip), vehicle: saline) 100 % of control; (dose: 500.0 mg/kg/injection, schedule: Q01DX010 (ip), vehicle: saline) 90 % of control.

For `Nc1ncnc2c1ccn2C1OC(CO)C(O)C1O` (stereo not given), the T/C (dose: 156.0 micrograms/kg/injection, schedule: Q01DX010 (ip), vehicle: saline) is 106 % of control; the T/C (dose: 313.0 micrograms/kg/injection, schedule: Q01DX010 (ip), vehicle: saline) is 112 % of control; the T/C (dose: 625.0 micrograms/kg/injection, schedule: Q01DX010 (ip), vehicle: saline) is 112 % of control; the T/C (dose: 1250.0 micrograms/kg/injection, schedule: Q01DX010 (ip), vehicle: saline) is 112 % of control.

Regarding `Nc1nc(=S)c2ncn(C3OC(CO)C(O)C3O)c2[nH]1` (stereo not given), the T/C under setting [6] was 117 % of control, the T/C under setting [7] is 111 % of control, the T/C under setting [8] is 117 % of control and the T/C under setting [9] was 94 % of control.

Turning to `CN[C@H]1CCc2cc(OC)c(OC)c(OC)c2-c2ccc(OC)c(=O)cc21`, the T/C is 95 % of control and 100 % of control (dose: 0.63 mg/kg/injection, schedule: Q01DX010 (ip), vehicle: other); 95 % of control and 100 % of control (dose: 1.25 mg/kg/injection, schedule: Q01DX010 (ip), vehicle: other); 90 % of control and 100 % of control (dose: 2.5 mg/kg/injection, schedule: Q01DX010 (ip), vehicle: other); 100 % of control and 104 % of control (dose: 5.0 mg/kg/injection, schedule: Q01DX010 (ip), vehicle: other).
